Experimental data from patent US20040122045A1, “Timing curation of administration of adenosine A1/A2 agonist for cardioprotection” (Aventis Pharmaceuticals Inc., priority 2001, published 2004).
Where two headings read alike, the source gives them in different places.

Tests used:
[1] = tested on: chick cardiomyocytes; details: cited from earlier work
[2] = tested on: in situ rabbit hearts; assay: Infarct size after 30 min regional ischemia/3 h reperfusion, in situ rabbit hearts; assay type: in vivo, New Zealand White rabbits; details: for Protection against infarction: Adenosine 150, 300 or 400 μg/kg/min; for Infarct size (% of risk zone): starting 10 minutes before reperfusion; for Infarct size, percentage of the risk zone: AMP 579 30 μg/kg iv bolus + 3 μg/kg/min
Method: Body temperature was maintained at 38-39° C. […] Ischemia was confirmed by appearance of cyanosis.
After 3 h of reperfusion, the rabbit was given an overdose of pentobarbital and the heart was quickly removed from the chest, mounted on a Langendorff apparatus, and perfused with saline to wash out blood. Then the coronary artery was reoccluded, and 5 ml of 0.1% zinc/cadmium sulfide particles (1-10 μm diameter, Duke Scientific Corp, Palo Alto, Calif.) were infused into the perfusate to demarcate the risk zone as the area of tissue without fluorescence. The heart was weighed, frozen, and cut into 2.5-mm-thick slices. The slices were incubated in 1% triphenyltetrazolium chloride (TTC) in sodium phosphate buffer at 37° C. for 20 min. The slices were immersed in 10% formalin to enhance the contrast between stained (viable) and unstained (necrotic) tissue and then squeezed between glass plates spaced exactly 2 mm apart. The myocardium at risk was identified by illuminating the slices with ultraviolet light. The infarcted and risk zone areas were traced on a clear acetate sheet and quantified with planimetry by an investigator blinded to the treatment. The areas were converted into volumes by multiplying the areas by slice thickness. Infarct size is expressed as a percentage of the risk zone.
The control group received no drug treatment.

[3] = target: A2a receptor subtype (Homo sapiens, UniProt P29274); details: cited from earlier work
A2a receptor subtype, sequence (P29274 whole entry, the tested form may be a part): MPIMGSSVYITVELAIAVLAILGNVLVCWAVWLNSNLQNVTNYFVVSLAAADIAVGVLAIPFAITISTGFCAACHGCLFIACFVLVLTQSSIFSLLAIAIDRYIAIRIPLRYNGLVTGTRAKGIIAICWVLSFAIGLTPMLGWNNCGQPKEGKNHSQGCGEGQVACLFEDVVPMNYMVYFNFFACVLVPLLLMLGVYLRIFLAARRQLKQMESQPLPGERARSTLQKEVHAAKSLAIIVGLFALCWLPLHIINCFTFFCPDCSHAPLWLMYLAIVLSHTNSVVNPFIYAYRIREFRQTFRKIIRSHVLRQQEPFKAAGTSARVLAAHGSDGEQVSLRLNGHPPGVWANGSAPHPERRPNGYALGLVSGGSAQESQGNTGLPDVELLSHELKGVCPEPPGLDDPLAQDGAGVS

[4] = Hemodynamics (heart rate, mean arterial pressure) during ischemia/reperfusion
[5] = target: T1, A1 receptor subtype (Homo sapiens, UniProt P30542); details: cited from earlier work
T1 sequence (P30542 1-326): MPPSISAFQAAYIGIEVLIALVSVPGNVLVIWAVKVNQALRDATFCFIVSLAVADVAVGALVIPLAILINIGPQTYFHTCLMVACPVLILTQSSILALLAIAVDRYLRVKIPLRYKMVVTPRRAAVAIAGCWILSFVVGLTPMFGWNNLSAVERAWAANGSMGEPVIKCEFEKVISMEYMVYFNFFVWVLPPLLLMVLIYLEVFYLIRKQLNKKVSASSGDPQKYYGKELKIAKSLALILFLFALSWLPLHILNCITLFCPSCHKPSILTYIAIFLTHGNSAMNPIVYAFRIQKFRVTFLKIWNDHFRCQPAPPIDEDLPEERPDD

[6] = tested on: rabbit hearts; details: cited from earlier work
[7] = tested on: rabbit heart; details: cited from earlier work
[8] = Adenosine 150 μg/kg/min iv, 70 min starting 10 min before reperfusion
[9] = Adenosine 300 μg/kg/min iv, 70 min starting 10 min before reperfusion
[10] = Adenosine 400 μg/kg/min iv, 70 min starting 10 min before reperfusion
[11] = AMP (30 min): 30 μg/kg iv bolus + 3 μg/kg/min, started 10 min before reperfusion, 30 min, Baseline
[12] = AMP (30 min): started 10 min before reperfusion, 30 min, Ischemia (end of 30 min)
[13] = AMP (30 min): started 10 min before reperfusion, 30 min, Rep 30′
[14] = AMP (30 min): started 10 min before reperfusion, 30 min, Rep 90′
[15] = AMP (30 min): started 10 min before reperfusion, 30 min, Rep 180′
[16] = AMP (40 min): 30 μg/kg iv bolus + 3 μg/kg/min, started 10 min before reperfusion, 40 min, Baseline
[17] = AMP (40 min): started 10 min before reperfusion, 40 min, Ischemia (end of 30 min)
[18] = AMP (40 min): started 10 min before reperfusion, 40 min, Rep 30′
[19] = AMP (40 min): started 10 min before reperfusion, 40 min, Rep 90′
[20] = AMP (40 min): started 10 min before reperfusion, 40 min, Rep 180′
[21] = AMP (70 min, late): 30 μg/kg iv bolus + 3 μg/kg/min, started 10 min after reperfusion, 70 min, Baseline
[22] = AMP (70 min, late): started 10 min after reperfusion, 70 min, Ischemia (end of 30 min)
[23] = AMP (70 min, late): started 10 min after reperfusion, 70 min, Rep 30′
[24] = AMP (70 min, late): started 10 min after reperfusion, 70 min, Rep 90′
[25] = AMP (70 min, late): started 10 min after reperfusion, 70 min, Rep 180′
[26] = AMP (70 min, onset): 30 μg/kg iv bolus + 3 μg/kg/min, started at onset of reperfusion, 70 min, Baseline
[27] = AMP (70 min, onset): started at onset of reperfusion, 70 min, Ischemia (end of 30 min)
[28] = AMP (70 min, onset): started at onset of reperfusion, 70 min, Rep 30′
[29] = AMP (70 min, onset): started at onset of reperfusion, 70 min, Rep 90′
[30] = AMP (70 min, onset): started at onset of reperfusion, 70 min, Rep 180′

Nc1ncnc2c1ncn2[C@@H]1O[C@H](CO)[C@@H](O)[C@H]1O [Adenosine]
Burst of free radicals at reperfusion ([1]; 100 μM (a receptor saturating concentration)): failed to block the burst of free radicals at reperfusion | % infarction of the risk zone [2, 8]: 32.6 ± 5.8% | Infarct size [2, 8]: 0.36 ± 0.09 cm^3 | % infarction of the risk zone [2, 9]: 34.4 ± 9.5% | Infarct size [2, 9]: 0.36 ± 0.11 cm^3 | % infarction of the risk zone [2, 10]: 29.2 ± 8.0% | Infarct size [2, 10]: 0.30 ± 0.08 cm^3 | Protection against infarction ([2]; 70 min starting 10 min before reperfusion): No protection was seen | Protection against infarction ([2]; 70 min starting 10 min before reperfusion, listed as adenosine): none of the doses was protective | Infarct size (% of risk zone) ([2]; Infusion rate 300 ug/kg/min): 34.4 ± 9.5% | Infarct size (% of risk zone) ([2]; Infusion rate 400 ug/kg/min): 29.2 ± 8.0%

CCNC(=O)[C@H]1CC(n2cnc3c(N[C@H](CC)Cc4sccc4Cl)ccnc32)[C@H](O)[C@@H]1O (relative stereo) [AMP 579, [1S-[1α,2β,3β,4α(S*)]]-4-[7-[[3-chloro-2-thienyl)methyl]propyl]amino]-3H-imidazo[4,5-b]pyridin-3-yl]-N-ethyl-2,3-dihydroxycyclopentanecarboxamide]
Ki [3]: 56 nM | HR [4, 11]: 271 ± 3 beats/min | MAP [4, 11]: 91.8 ± 2.8 mmHg | HR [4, 12]: 247 ± 5 beats/min | MAP [4, 12]: 73.7 ± 3.9 mmHg | HR [4, 13]: 241 ± 7 beats/min | MAP [4, 13]: 74.8 ± 5.1 mmHg | HR [4, 14]: 256 ± 11 beats/min | MAP [4, 14]: 77.7 ± 5.7 mmHg | HR [4, 15]: 265 ± 6 beats/min | MAP [4, 15]: 77.9 ± 5.2 mmHg | HR [4, 16]: 271 ± 11 beats/min | MAP [4, 16]: 99.3 ± 2.4 mmHg | HR [4, 17]: 268 ± 7 beats/min | MAP [4, 17]: 76.8 ± 6.6 mmHg | HR [4, 18]: 250 ± 14 beats/min | MAP [4, 18]: 70.4 ± 8.1 mmHg | HR [4, 19]: 268 ± 13 beats/min | MAP [4, 19]: 83.5 ± 5.0 mmHg | HR [4, 20]: 268 ± 10 beats/min | MAP [4, 20]: 81.8 ± 4.5 mmHg | HR [4, 21]: 285 ± 3 beats/min | MAP [4, 21]: 96.9 ± 2.9 mmHg | HR [4, 22]: 281 ± 1 beats/min | MAP [4, 22]: 84.6 ± 4.5 mmHg | HR [4, 23]: 243 ± 8 beats/min | MAP [4, 23]: 57.4 ± 5.6 mmHg | HR [4, 24]: 240 ± 6 beats/min | MAP [4, 24]: 69.0 ± 4.9 mmHg | HR [4, 25]: 259 ± 10 beats/min | MAP [4, 25]: 68.1 ± 3.6 mmHg | HR [4, 26]: 262 ± 6 beats/min | MAP [4, 26]: 98.6 ± 3.2 mmHg | HR [4, 27]: 270 ± 9 beats/min | MAP [4, 27]: 89.0 ± 3.2 mmHg | HR [4, 28]: 233 ± 9 beats/min | MAP [4, 28]: 55.6 ± 3.9 mmHg | HR [4, 29]: 235 ± 16 beats/min | MAP [4, 29]: 70.8 ± 4.5 mmHg | HR [4, 30]: 264 ± 10 beats/min | MAP [4, 30]: 79.6 ± 3.9 mmHg | Hypotensive effect ([4]; infusion commenced before the onset of reperfusion (AMP 30 min and AMP 40 min groups)): additional mild hypotensive effect | Ki [5]: 5 nM | Burst of free radicals at reperfusion ([1]; 1 μM): virtually eliminated it | Protection against infarction (dose required) ([6]; 3 μg/kg/min): protective | Infarct size, percentage of the risk zone ([6]; 70-min infusion starting 10 min prior to reperfusion, previous study (Xu et al.)): 12.3±1.0% | Infarct size, percentage of the risk zone ([2]; 70 min, started 10 min after reperfusion): 27.6±7.2% | Infarct size, percentage of the risk zone ([2]; 70 min, started at onset of reperfusion, p<0.05 vs. control): 13.0±1.9% | Infarct size, percentage of the risk zone ([2]; started 10 min before reperfusion, 30 min infusion): 30.1±1.4% | Infarct size, percentage of the risk zone ([2]; started 10 min before reperfusion, 40 min infusion): 24.8±5.9% | Infarct size ([2]; AMP (30 min): 30 μg/kg iv bolus + 3 μg/kg/min, started 10 min before reperfusion, 30 min): 0.27 ± 0.05 cm^3 | Infarct size ([2]; AMP (40 min): 30 μg/kg iv bolus + 3 μg/kg/min, started 10 min before reperfusion, 40 min): 0.27 ± 0.07 cm^3 | Infarct size ([2]; AMP (70 min, late): 30 μg/kg iv bolus + 3 μg/kg/min, started 10 min after reperfusion, 70 min): 0.28 ± 0.07 cm^3 | Infarct size ([2]; AMP (70 min, onset): 30 μg/kg iv bolus + 3 μg/kg/min, started at onset of reperfusion, 70 min, * p<0.05 vs. control): 0.14 ± 0.03* cm^3 | Onset of contracture that accompanies reperfusion [7]: greatly attenuates the onset of contracture
